In ChEMBL document CHEMBL2375306, “Antimicrobial peptides containing unnatural amino acid exhibit potent bactericidal activity against ESKAPE pathogens” (Bioorg Med Chem, 2013) one finds MBC and MIC data, which are given here for three compounds.

In brackets after ≈: the same amount, converted by molar mass. Square brackets hold non-standard residues; d marks the D form. Peptide text beside a SMILES is read from it. * marks the point of attachment. ξ: configuration not given here. Pro(3ξ,4ξ-(CH2)4) = O=C(O)[C@H]1NCC2CCCCC21; Phe(4-F) = N[C@@H](Cc1ccc(F)cc1)C(=O)O; Tic = O=C(O)[C@@H]1Cc2ccccc2CN1; X1 = CC(=O)NC(=O)[C@H](CN)N*; Dap = NC[C@H](N)C(=O)O; GABA = NCCCC(=O)O; βAla = NCCC(=O)O

Common to all, as to type: functional
The test system of one assay is Enterococcus faecium. Kind of assay: Antibacterial activity against Enterococcus faecium MMC4 after 24 hrs by broth microdilution method. The following applies: MMC4, 24 h.
Another assay has as its system Klebsiella aerogenes. Kind of assay: Antibacterial activity against Enterobacter aerogenes after 24 hrs by broth microdilution method. On the technique in general: In broth dilution the organism is exposed to a series of concentrations in liquid medium.
The next assay has as its system Pseudomonas aeruginosa. Kind of assay: Antibacterial activity against Pseudomonas aeruginosa PAO1 after 24 hrs by broth microdilution method. As to conditions: PAO1, 24 h.
Another assay relates to Klebsiella pneumoniae. The assay can be described thus: Antibacterial activity against Klebsiella pneumoniae BAMS clinical isolate 07-18 after 24 hrs by broth microdilution method. As to conditions: BAMS clinical isolate 07-18, 24 h.
The subject of a further assay is Acinetobacter baumannii. Kind of assay: Antibacterial activity against Acinetobacter baumannii WRAIR clinical isolate 13 after 24 hrs by broth microdilution method. As to conditions: WRAIR clinical isolate 13, 24 h.
Another assay deals with Staphylococcus aureus. The assay can be described thus: Antibacterial activity against methicillin-sensitive Staphylococcus aureus UAMS-1 after 24 hrs by broth microdilution method. As to conditions: UAMS-1, 24 h.

One may read the MBC as the smallest concentration meeting the test's criterion for killing. Read a low MBC as greater bactericidal potency. For orientation: MIC means the lowest concentration that inhibits growth of the organism. Low values mean greater potency, high ones weaker potency.

Regarding `CC(C)C[C@H](NC(=O)[C@@H](N)CCCCN)C(=O)N1Cc2ccccc2C[C@H]1C(=O)N1CC2CCCCC2[C@H]1C(=O)N[C@@H](CCCCN)C(=O)N1Cc2ccccc2C[C@H]1C(=O)N1CC2CCCCC2[C@H]1C(=O)NC(=O)[C@H](Cc1ccccc1)NCC(=O)N1Cc2ccccc2C[C@H]1C(=O)N1CC2CCCCC2[C@H]1C(=O)N[C@@H](CCCCN)C(=O)N1Cc2ccccc2C[C@H]1C(=O)N1CC2CCCCC2[C@H]1C(=O)NC(=O)[C@H](Cc1ccccc1)NCC(=O)N1Cc2ccccc2C[C@H]1C(=O)N1CC2CCCCC2[C@H]1C(=O)N[C@@H](CCCCN)C(=O)N1Cc2ccccc2C[C@H]1C(=O)N1CC2CCCCC2[C@H]1C(=O)N[C@@H](CCCCN)C(=O)N[C@@H](CCCCN)C(=O)N[C@@H](CCCCN)C(=O)N[C@@H](CCCCN)C(N)=O` (stereo not given in full), the MBC against Enterococcus faecium stood at 25 µg/mL (≈ 7.3 µM); against Klebsiella aerogenes it was 100 µg/mL (≈ 29.2 µM); with Pseudomonas aeruginosa, 50 µg/mL (≈ 14.6 µM); with Klebsiella pneumoniae it was 100 µg/mL (≈ 29.2 µM); against Acinetobacter baumannii, 50 µg/mL (≈ 14.6 µM); in the assay on Staphylococcus aureus, 25 µg/mL (≈ 7.3 µM). Besides, the MIC is 6.25 µg/mL (≈ 1.82 µM) in the assay with Enterococcus faecium; 100 µg/mL (≈ 29.2 µM) in the assay with Klebsiella aerogenes; 50 µg/mL (≈ 14.6 µM) in the assay with Pseudomonas aeruginosa; 50 µg/mL (≈ 14.6 µM) in the assay with Klebsiella pneumoniae; 12.5 µg/mL (≈ 3.65 µM) in the assay on Acinetobacter baumannii; 25 µg/mL (≈ 7.3 µM) against Staphylococcus aureus.
On to `CC(=O)NCCCC(=O)N[C@@H](Cc1ccccc1)C(=O)N1Cc2ccccc2C[C@H]1C(=O)N1CC2CCCCC2[C@H]1C(=O)NCCCC(=O)N[C@@H](CCCCN)C(=O)N1Cc2ccccc2C[C@H]1C(=O)N1CC2CCCCC2[C@H]1C(=O)NCCCC(=O)N[C@@H](Cc1ccccc1)C(=O)N1Cc2ccccc2C[C@H]1C(=O)N1CC2CCCCC2[C@H]1C(=O)NCCCC(=O)N[C@@H](CCCCN)C(=O)N1Cc2ccccc2C[C@H]1C(=O)N[C@@H](CCCCN)C(=O)N[C@@H](CCCCN)C(=O)N[C@@H](CCCCN)C(=O)N[C@@H](CCCCN)C(=O)N[C@@H](CCCCN)C(N)=O` (stereo not given in full) (Ac-[GABA]F[Tic][Pro(3ξ,4ξ-(CH2)4)][GABA]K[Tic][Pro(3ξ,4ξ-(CH2)4)][GABA]F[Tic][Pro(3ξ,4ξ-(CH2)4)][GABA]K[Tic]KKKKK-NH2), for which the MBC against Klebsiella aerogenes, in the assay with Pseudomonas aeruginosa, against Klebsiella pneumoniae and against Staphylococcus aureus was greater than 100 µg/mL throughout. The MIC in the assay with Klebsiella aerogenes, in the assay on Pseudomonas aeruginosa, against Klebsiella pneumoniae and against Staphylococcus aureus was greater than 100 µg/mL each time.
In the case of `CC(=O)NCCC(=O)N[C@@H](Cc1ccc(F)cc1)C(=O)N1Cc2ccccc2C[C@H]1C(=O)N1CC2CCCCC2[C@H]1C(=O)NCCC(=O)N[C@@H](CCCCN)C(=O)N1Cc2ccccc2C[C@H]1C(=O)N1CC2CCCCC2[C@H]1C(=O)NCCC(=O)N[C@@H](Cc1ccc(F)cc1)C(=O)N1Cc2ccccc2C[C@H]1C(=O)N1CC2CCCCC2[C@H]1C(=O)NCCC(=O)N[C@@H](CCCCN)C(=O)N1Cc2ccccc2C[C@H]1C(=O)N[C@@H](CN)C(=O)N[C@@H](CN)C(=O)N[C@@H](CN)C(=O)N[C@@H](CN)C(=O)NC(C)=O` (stereo not given in full) (Ac-[βAla][Phe(4-F)][Tic][Pro(3ξ,4ξ-(CH2)4)][βAla]K[Tic][Pro(3ξ,4ξ-(CH2)4)][βAla][Phe(4-F)][Tic][Pro(3ξ,4ξ-(CH2)4)][βAla]K[Tic][Dap][Dap][Dap]-X1), the MBC with Klebsiella aerogenes is greater than 100 µg/mL; in the assay with Pseudomonas aeruginosa it was greater than 100 µg/mL; with Klebsiella pneumoniae it was 100 µg/mL (≈ 41.5 µM); against Acinetobacter baumannii, 12.5 µg/mL (≈ 5.19 µM); in the assay on Staphylococcus aureus, greater than 100 µg/mL. Also, the MIC in the assay on Klebsiella aerogenes is greater than 100 µg/mL; in the assay on Pseudomonas aeruginosa, 50 µg/mL (≈ 20.8 µM); in the assay with Klebsiella pneumoniae it was 50 µg/mL (≈ 20.8 µM); with Acinetobacter baumannii, 12.5 µg/mL (≈ 5.19 µM); against Staphylococcus aureus, 100 µg/mL (≈ 41.5 µM).
